# Molecular target: USP7 (Homo sapiens, UniProt Q93009)
# Test: Ub-AMC assay (USP7 assay)
# Format: biochemical
# Parameters: fused on or other part: His tag from pET28aLIC; removed by thrombin for the catalytic domain, no removal step given for the full length
# Settings: for IC50: USP7 assay
# Procedure: USP7 and mutants were tested for their activity in Ubiquitin-AMC assay in presence or absence of inhibitors. […] For the same assay USP7 full length WT and Q351 mutant were used at 50 nM. […] The reaction was incubated 30 min at room temperature prior to the addition of 2 uM Ubiquitin-AMC (Boston Biochem) substrate. […] The calculated initial rate values were plotted against inhibitor concentrations to determine IC50s. All the experimental data were plotted using Prism GraphPad. FIG. 2A illustrates the structure guided optimization for the inhibition of USP7.
# ND refers to not disclosed.
# Chain of USP7 (Q93009 208-560 limits assumed): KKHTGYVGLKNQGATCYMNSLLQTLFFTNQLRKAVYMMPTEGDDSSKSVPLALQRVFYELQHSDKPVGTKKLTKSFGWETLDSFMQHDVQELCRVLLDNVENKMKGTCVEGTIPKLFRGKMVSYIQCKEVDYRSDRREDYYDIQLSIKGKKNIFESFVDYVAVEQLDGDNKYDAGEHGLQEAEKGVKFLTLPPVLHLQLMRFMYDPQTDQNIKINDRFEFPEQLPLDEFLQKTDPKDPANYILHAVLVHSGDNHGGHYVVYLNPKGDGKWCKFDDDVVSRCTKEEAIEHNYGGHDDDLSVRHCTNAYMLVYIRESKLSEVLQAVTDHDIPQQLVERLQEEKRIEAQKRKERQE
Molecule,IC50 [µM],"fold less active than its enantiomer compound 10 (USP7 inhibition, FIG. 2A) [fold]"
7-Chloro-3-((4-hydroxy-1-(3-phenylpropyl)piperidin-4-yl)methyl)quinazolin-4(3H)-one [Compound 4],> 10,
"C[C@H](CC(=O)N1CCC(O)(Cn2cnc3cc(Cl)ccc3c2=O)CC1)c1ccccc1 [Compound 1, (R)-7-Chloro-3-((4-hydroxy-1-(3-phenylbutanoyl)piperidin-4-yl)methyl)quinazolin-4(3H)-one]",< 0.2,
"O=C(CCc1ccccc1)N1CCC(Cn2cnc3cc(Cl)ccc3c2=O)CC1 [Compound 2, 7-Chloro-3-((1-(3-phenylpropanoyl)piperidin-4-yl)methyl)quinazolin-4(3H)-one]",< 0.2,
"O=C(CCc1ccccc1)N1CCC(O)(Cn2cnc3cc(Cl)ccc3c2=O)C1 (stereo not drawn) [Compound 5, 7-chloro-3-((3-hydroxy-1-(3-phenylpropanoyl)pyrrolidin-3-yl)methyl)quinazolin-4(3H)-one]",> 10,
"CC(=O)N1CCC(O)(Cn2cnc3cc(Cl)ccc3c2=O)CC1 [Compound 6, 3-((1-Acetyl-4-hydroxypiperidin-4-yl)methyl)-7-chloroquinazolin-4(3H)-one]",> 10,
"C[C@@H](CC(=O)N1CCC(O)(Cn2cnc3cc(NC(=O)CCN4CCN(C)CC4)ccc3c2=O)CC1)c1ccccc1 [Compound 11, (S)—N-(3-((4-Hydroxy-1-(3-phenylbutanoyl)piperidin-4-yl)methyl)-4-oxo-3,4-dihydroquinazolin-7-yl)-3-(4-methylpiperazin-1-yl)propanamide]",< 0.2,80
CC(CC(=O)N1CCC(O)(Cn2cnc3cc(NC(=O)CCN4CCN(C)CC4)ccc3c2=O)CC1)c1ccccc1 (stereo not drawn) [Compound 12],0.2 to 1,
CC(C)C(CC(=O)N1CCC(O)(Cn2cnc3cc(NC(=O)CCN4CCN(C)CC4)ccc3c2=O)CC1)c1ccccc1 (stereo not drawn) [Compound 13],0.2 to 1,
"C[C@H](CC(=O)N1CCC(O)(Cn2cnc3cc(NC(=O)CCN4CCOCC4)ccc3c2=O)CC1)c1ccccc1 [Compound 14, (R)—N-(3-((4-hydroxy-1-(3-phenylbutanoyl)piperidin-4-yl)methyl)-4-oxo-3,4-dihydroquinazolin-7-yl)-3-morpholinopropanamide]",< 0.2,
"C[C@H](CC(=O)N1CCC(O)(Cn2cnc3cc(NC(=O)CCN(C)C)ccc3c2=O)CC1)c1ccccc1 [Compound 15, (R)-3-(Dimethylamino)-N-(3-((4-hydroxy-1-(3-phenylbutanoyl)piperidin-4-yl)methyl)-4-oxo-3,4-dihydroquinazolin-7-yl)propanamide]",< 0.2,
CC(CC(=O)N1CCC(O)(Cn2cnc3cc(NC(=O)CCn4ccnc4)ccc3c2=O)CC1)c1ccccc1 (stereo not drawn) [Compound 16],< 0.2,
Cn1cc(C(=O)CCl)cc1C(=O)NCCCCC(=O)N1CCC(O)(Cn2cnc3cc(Cl)ccc3c2=O)CC1 [Compound 18],1 to 10,
O=C(NCCCCC(=O)N1CCC(O)(Cn2cnc3cc(Cl)ccc3c2=O)CC1)c1ccc2c(c1)CCCN2C(=O)CCl [Compound 19],1 to 10,
C=CCCC(=O)N1CCC(O)(Cn2cnc3cc(Cl)ccc3c2=O)CC1 [Compound 20],> 10,
N[C@H](Cc1ccccc1)C(=O)N1CCC(O)(Cn2cnc3cc(Cl)ccc3c2=O)CC1 [Compound 21],> 10,
N[C@@H](Cc1ccccc1)C(=O)N1CCC(O)(Cn2cnc3cc(Cl)ccc3c2=O)CC1 [Compound 22],> 10,
O=C(CCc1ccc(Br)cc1)N1CCC(O)(Cn2cnc3cc(Cl)ccc3c2=O)CC1 [Compound 23],> 10,
O=C(CCc1cccc(Br)c1)N1CCC(O)(Cn2cnc3cc(Cl)ccc3c2=O)CC1 [Compound 24],> 10,
O=C(C1CCc2ccccc2C1)N1CCC(O)(Cn2cnc3cc(Cl)ccc3c2=O)CC1 (stereo not drawn) [Compound 25],> 10,
O=C(/C=C/c1ccccc1)N1CCC(O)(Cn2cnc3cc(Cl)ccc3c2=O)CC1 [Compound 26],> 10,
CC(C)(CC(=O)N1CCC(O)(Cn2cnc3cc(Cl)ccc3c2=O)CC1)c1ccccc1 [Compound 28],> 10,
CC(Cc1ccccc1)C(=O)N1CCC(O)(Cn2cnc3cc(Cl)ccc3c2=O)CC1 (stereo not drawn) [Compound 29],0.2 to 1,
O=C(C1CC1c1ccccc1)N1CCC(O)(Cn2cnc3cc(Cl)ccc3c2=O)CC1 (stereo not drawn) [Compound 30],1 to 10,

Molecule,IC50 [µM],"fold less active than its enantiomer compound 10 (USP7 inhibition, FIG. 2A) [fold]"
O=C(COc1ccccc1)N1CCC(O)(Cn2cnc3cc(Cl)ccc3c2=O)CC1 [Compound 31],> 10,
O=C([C@@H](O)Cc1ccccc1)N1CCC(O)(Cn2cnc3cc(Cl)ccc3c2=O)CC1 [Compound 32],> 10,
O=C(C[C@H](O)c1ccccc1)N1CCC(O)(Cn2cnc3cc(Cl)ccc3c2=O)CC1 [Compound 33],> 10,
O=C(CCc1ccccn1)N1CCC(O)(Cn2cnc3cc(Cl)ccc3c2=O)CC1 [Compound 34],> 10,
O=C(CCc1cccnc1)N1CCC(O)(Cn2cnc3cc(Cl)ccc3c2=O)CC1 [Compound 35],> 10,
O=C(NCc1ccccc1)N1CCC(O)(Cn2cnc3cc(Cl)ccc3c2=O)CC1 [Compound 36],> 10,
O=c1c2ccc(Cl)cc2ncn1CC1(O)CCN(C(=S)NCc2ccccc2)CC1 [Compound 37],> 10,
CN(Cc1ccccc1)C(=O)N1CCC(O)(Cn2cnc3cc(Cl)ccc3c2=O)CC1 [Compound 38],0.2 to 1,
CCN(Cc1ccccc1)C(=O)N1CCC(O)(Cn2cnc3cc(Cl)ccc3c2=O)CC1 [Compound 39],0.2 to 1,
O=C(N1CCC(O)(Cn2cnc3cc(Cl)ccc3c2=O)CC1)N(Cc1ccccc1)Cc1ccccc1 [Compound 40],> 10,
C[C@H](c1ccccc1)N(C)C(=O)N1CCC(O)(Cn2cnc3cc(Cl)ccc3c2=O)CC1 [Compound 41],> 10,
C[C@@H](c1ccccc1)N(C)C(=O)N1CCC(O)(Cn2cnc3cc(Cl)ccc3c2=O)CC1 [Compound 42],> 10,
O=C(CCl)NCCC(=O)N1CCC(O)(Cn2cnc3cc(Cl)ccc3c2=O)CC1 [Compound 44],> 10,
C=CC(=O)NCCCC(=O)N1CCC(O)(Cn2cnc3cc(Cl)ccc3c2=O)CC1 [Compound 46],> 10,
CC(C)C(CC(=O)N1CCC(O)(Cn2cnc3cc(NC(=O)CCN4CCN(C)CC4)ccc3c2=O)CC1)c1ccccc1 (stereo not drawn) [Compound 47],< 0.2,
CN1CCN(CCC(=O)Nc2ccc3c(=O)n(CC4(O)CCN(C(=O)CC(c5ccccc5)c5ccccc5)CC4)cnc3c2)CC1 [Compound 48],< 0.2,
CN1CCN(CCC(=O)Nc2ccc3c(=O)n(CC4(O)CCN(C(=O)C(Cc5ccccc5)c5ccccc5)CC4)cnc3c2)CC1 (stereo not drawn) [Compound 49],> 10,
CC(=O)Nc1cccc2c(=O)n(CC3(O)CCN(C(=O)C[C@@H](C)c4ccccc4)CC3)cnc12 [Compound 50],1 to 10,
O=C(CCn1cccc1)N1CCC(O)(Cn2cnc3cc(Cl)ccc3c2=O)CC1 [Compound 51],> 10,
O=C(CCc1ccncc1)N1CCC(O)(Cn2cnc3cc(Cl)ccc3c2=O)CC1 [Compound 52],> 10,
O=C(CF)N[C@@H](Cc1ccccc1)C(=O)N1CCC(O)(Cn2cnc3cc(Cl)ccc3c2=O)CC1 [Compound 62],> 10,
O=C(C1CCCN1c1ccccc1)N1CCC(O)(Cn2cnc3cc(Br)ccc3c2=O)CC1 (stereo not drawn) [Compound 65],> 10,

# Second part, led by results:
IC50 [µM],Molecule,"fold less active than its enantiomer compound 10 (USP7 inhibition, FIG. 2A) [fold]"
> 10,COc1ccc(CCC(=O)N2CCC(O)(Cn3cnc4cc(Cl)ccc4c3=O)CC2)cc1 [Compound 53],
0.2 to 1,O=C(CCc1ccc(F)cc1)N1CCC(O)(Cn2cnc3cc(Cl)ccc3c2=O)CC1 [Compound 54],
> 10,O=C(CCC1CCCCC1)N1CCC(O)(Cn2cnc3cc(Cl)ccc3c2=O)CC1 [Compound 55],
> 10,O=C(CCc1ccccc1)N1CCC(O)(Cn2cnc3cc([N+](=O)[O-])ccc3c2=O)CC1 [Compound 56],
> 10,Nc1ccc2c(=O)n(CC3(O)CCN(C(=O)CCc4ccccc4)CC3)cnc2c1 [Compound 57],
> 10,Nc1ccc2c(c1)NCN(CC1(O)CCN(C(=O)CCc3ccccc3)CC1)C2=O [Compound 58],
> 10,C=CC(=O)N[C@@H](Cc1ccccc1)C(=O)N1CCC(O)(Cn2cnc3cc(Cl)ccc3c2=O)CC1 [Compound 59],
> 10,O=C(CCc1ccccc1)N1CCC(Cn2cnc3cc(Cl)ccc3c2=O)CC1 [Compound 60],
> 10,O=C(CCc1ccc([N+](=O)[O-])cc1)N1CCC(O)(Cn2cnc3cc(Cl)ccc3c2=O)CC1 [Compound 61],
> 10,[N-]=[N+]=NCCOCCOCC(=O)Nc1ccc2c(=O)n(CC3(O)CCN(C(=O)CCc4ccccc4)CC3)cnc2c1 [Compound 63],
1 to 10,CC(=O)Nc1ccc2c(=O)n(CC3(O)CCN(C(=O)CCc4ccccc4)CC3)cnc2c1 [Compound 64],
> 10,O=C(CCc1ccc(F)cc1)N1CCC(O)(Cn2cnc3cc(Cl)ccc3c2=O)C1 (stereo not drawn) [Compound 66],
> 10,O=C(C#Cc1ccccc1)N1CCC(O)(Cn2cnc3cc(Cl)ccc3c2=O)CC1 [Compound 67],
> 10,O=C(CCc1ccccc1)N1CCC(O)(Cn2cnc3ccc([N+](=O)[O-])cc3c2=O)CC1 [Compound 68],
> 10,Nc1ccc2ncn(CC3(O)CCN(C(=O)CCc4ccccc4)CC3)c(=O)c2c1 [Compound 69],
> 10,O=c1c2ccc(Cl)cc2ncn1CC1(O)CCN(c2ccccc2)CC1 [Compound 70],
> 10,O=C(c1ccc2c(Cl)c3c(nc2c1)CCCC3)N1CCC(O)(Cn2cnc3cc(Cl)ccc3c2=O)CC1 [Compound 71],
0.2 to 1,C[C@H](Cc1ccccc1)C(=O)N1CCC(O)(Cn2cnc3cc(Cl)ccc3c2=O)CC1 [Compound 72],
> 10,C[C@@H](Cc1ccccc1)C(=O)N1CCC(O)(Cn2cnc3cc(Cl)ccc3c2=O)CC1 [Compound 73],
> 10,O=C([C@@H]1C[C@H]1c1ccccc1)N1CCC(O)(Cn2cnc3cc(Cl)ccc3c2=O)CC1 [Compound 74],

# — US11465983B2, “USP7 inhibitors for treating multiple myeloma” (Dana-Farber Cancer Institute, Inc., priority 2017, dated 2022)
